# Laboratory results published in patent EP0506565A1, “Use of 4,9,11-trienic steroids in compositions for turkeys” (ROUSSEL-UCLAF, priority 1991, dated 1992).
# Tests used:
# [1] = Biological test: trenbolone acetate given orally in the feed, weight gain and feed conversion index; type: in vivo, dinde femelle; set-up: GPM = Gain de poids cumulé: unit not given here
# Text: L'essai a été effectué sur des dindes femelles âgées de 10 semaines.
# Les animaux sont répartis en 2 groupes : • un groupe témoin de 37 animaux, • un groupe de 37 animaux recevant de l'acétate de trenbolone dans leur nourriture.
# Les dindes reçoivent une quantité rationnée de nourriture renfermant l'acétate de trenbolone puis sont nourries ad libitum.
# On calcule le poids moyen des dindes par pesée individuelle chaque semaine. On calcule le gain de poids moyen et l'indice de consommation c'est-à-dire (le poids total de nourriture que l'animal a reçu)/(gain de poids total) [formula]
# Les résultats sont résumés dans le tableau ci-dessus, ainsi que dans les courbes jointes en annexe. • Courbe 1 : évolution pondérale des dindes femelles de 9 à 19 semaines. • Courbe 2 : évolution de la différence entre les indices de consommation cumulés témoins-traités. • Courbe 3 : évolution de la différence entre les gains de poids moyens des animaux traités par rapport aux animaux témoins.
# [2] = Plasma residues of TBA in orally treated turkeys; type: in vivo, dinde; conditions: à 10, 12, 14, 16 et 18 semaines; oral administration
# [3] = Course of plasma transaminase levels in orally treated turkeys; type: in vivo, dinde; conditions: oral administration, compared with controls
# [4] = Observation of locomotor behaviour of treated turkeys; type: in vivo, dinde; conditions: oral administration
# [5] = administré par voie orale chez divers animaux notamment les bovins; cited from earlier work
# [6] = 11ème semaine, 0,7 mg/Jour/dinde per os
# [7] = 12ème semaine, 0,7 mg/Jour/dinde per os
# [8] = 13ème semaine, 0,7 mg/Jour/dinde per os
# [9] = 14ème semaine, 0,7 mg/Jour/dinde per os
# [10] = 15ème semaine, 0,7 mg/Jour/dinde per os
# [11] = 16ème semaine, 0,7 mg/Jour/dinde per os
# [12] = 17ème semaine, 1,4 mg /jour/dinde per os
# [13] = 18ème semaine, 1,4 mg /jour/dinde per os
# [14] = 19éme semaine, 1,4 mg /jour/dinde per os
smiles,measurement,setting,value
CC(=O)O[C@H]1CC[C@H]2[C@@H]3CCC4=CC(=O)CCC4=C3C=C[C@]12C [acétate de trenbolone],% variation = % de l'augmentation de GPM des traités par rapport aux témoins,[1]; [6],12%
same,GPM = Gain de poids cumulé,[1]; [6],"1606,1"
same,I.C. = indice de consommation,[1]; [6],"2,05"
same,PM = poids moyen,[1]; [6],"4967,6 grammes"
same,% variation = % de l'augmentation de GPM des traités par rapport aux témoins,[1]; [7],18%
same,GPM = Gain de poids cumulé,[1]; [7],"2303,7"
same,I.C. = indice de consommation,[1]; [7],"2,05"
same,PM = poids moyen,[1]; [7],"5665,2 grammes"
same,% variation = % de l'augmentation de GPM des traités par rapport aux témoins,[1]; [8],12%
same,GPM = Gain de poids cumulé,[1]; [8],"2907,2"
same,I.C. = indice de consommation,[1]; [8],"2,54"
same,PM = poids moyen,[1]; [8],"6268,7 grammes"
same,% variation = % de l'augmentation de GPM des traités par rapport aux témoins,[1]; [9],10%
same,GPM = Gain de poids cumulé,[1]; [9],"3839,4"
same,I.C. = indice de consommation,[1]; [9],"2,66"
same,PM = poids moyen,[1]; [9],"7200,9 grammes"
same,% variation = % de l'augmentation de GPM des traités par rapport aux témoins,[1]; [10],7%
same,GPM = Gain de poids cumulé,[1]; [10],"4463,6"
same,I.C. = indice de consommation,[1]; [10],"2,66"
same,PM = poids moyen,[1]; [10],"7825,1 grammes"
same,% variation = % de l'augmentation de GPM des traités par rapport aux témoins,[1]; [11],8%
same,GPM = Gain de poids cumulé,[1]; [11],5258
same,I.C. = indice de consommation,[1]; [11],"3,1"
same,PM = poids moyen,[1]; [11],"8619,6 grammes"
same,% variation = % de l'augmentation de GPM des traités par rapport aux témoins,[1]; [12],9%
same,GPM = Gain de poids cumulé,[1]; [12],"6008,1"
same,I.C. = indice de consommation,[1]; [12],"3,33"
same,PM = poids moyen,[1]; [12],"9369,7 grammes"
same,% variation = % de l'augmentation de GPM des traités par rapport aux témoins,[1]; [13],11%
same,GPM = Gain de poids cumulé,[1]; [13],"6651,2"
same,I.C. = indice de consommation,[1]; [13],"3,45"
same,PM = poids moyen,[1]; [13],"10012,8 grammes"
same,% variation = % de l'augmentation de GPM des traités par rapport aux témoins,[1]; [14],11%
same,GPM = Gain de poids cumulé,[1]; [14],"7197,8"
same,I.C. = indice de consommation,[1]; [14],"3,59"
same,PM = poids moyen,[1]; [14],"10559,4 grammes"
same,résidus plasmatiques de TBA,[2],inférieurs à la limite de dosage
same,évolution du taux des transaminases plasmatiques (GOT et GPT),[3],n'est pas modifiée par rapport aux témoins
same,comportement locomoteur,[4],aucune anomalie
same,activité,[5],relativement faible
